Reference: patent publication US20090220562A1, “Osteogenic and anti-adipogenic oxysterols” (priority 2005, published 2009)

Columns and labels:
Type in all cases: cell-based, mouse
[1] = test system: M2-10B4 marrow stromal cells; experiment: Alkaline phosphatase (ALP) activity assay on whole cell extracts of M2-10B4 marrow stromal cells; conditions: for Enzyme Activity (units/mg total cellular protein) ± SD, alkaline phosphatase: oxysterols 5 μM, 4 days, M2-10B4, untreated 6 ± 3
Protocol: (§1) Cells: M2-10B4 mouse marrow stromal cell line obtained from American Type Culture Collection (ATCC, Rockville, Md., U.S.A.) was derived from bone marrow stromal cells of a (C57BL/6J x C3H/HeJ) Fl mouse, and support human and murine myelopoiesis in long-term cultures (as per ATCC) and have the ability to differentiate into osteoblastic and adipocytic cells. Unless specified, these cells were cultured in RPMI 1640 containing 10% heat-inactivated FBS, and supplemented with 1 mM sodium pyruvate, 100 U/ml penicillin, and 100 U/ml streptomycin (all from Irvine Scientific).
Cells were always treated at 90% confluence. […]
Next, a combination of 22R and 20S oxysterols (RS, 2.5 μM each) were added in the presence or absence of SC as indicated. After 3 days, ALP activity was measured as described earlier. […] (B) M2 cells were treated as described in (A) and after 10 days matrix mineralization in cultures was quantified by a ^45Ca incorporation assay as described earlier. […] (C) M2 cells were pretreated with 20 μM SC for 4 hours, followed by the addition of RS in the presence or absence of SC as described above. After 8 days, total RNA was isolated and analyzed for osteocalcin (Osc) and […] expression by Northern blotting as previously described. Data from densitometric analysis of the Northern blot is shown in (D) as the average of duplicate samples, normalized to 18S rRNA. (E) M2 cells at confluence were pretreated for 2 hours with control vehicle (C), or PLA2 inhibitors ACA (25 μM) and AACOCF3 (AAC, 20 μM), in osteogenic medium. Next, a combination of 22R and 20S oxysterols (RS, 2.5 μM) was added in the presence or absence of the inhibitors as indicated. After 3 days, ALP activity was measured as previously described. […] (F) M2 cells were treated as described in (E). After 10 days, matrix mineralization in cultures was quantified using a ^45Ca incorporation assay as previously described. […]

M2 cells = experiment: Troglitazone-induced adipogenesis in M2 cells (oil Red O staining, adipocyte count); conditions: Tro 10 μM, oxysterol 10 μM, 10 days, alone or in combination
Protocol: (§2) Von Kossa and oil red O staining—Matrix mineralization in cell monolayers was detected by silver nitrate staining as previously described. Oil red O staining for detection of adipocytes was performed as previously described.
Test 1: M2 cells at 90% confluence were treated with vehicle (C), PPAR-γ activator, troglitazone 10 μM (Tro), alone or in combination with 10 μM oxysterols 20S-, 22R-, or 25S-hydroxycholesterol. After 8 days, adipocytes were identified by oil Red 0 staining and quantified by counting under a phase contrast microscope. FIG. 6A is a bar graph depicting the effect of oxysterols on reducing adipogenesis of MSC.
Test 2: (A) M2 cells at confluence were treated in RPMI containing 10% FBS with control vehicle or 10 μM troglitazone (Tro) in the absence or presence of 10 μM 20S or 22S-hydroxycholesterol. After 10 days, adipocytes were visualized by oil Red O staining and quantified by light microscopy, shown in (B). […] (C) M2 cells were treated at confluence with 10 μM Tro, alone or in combination with 10 μM 20S oxysterol. After 10 days, total RNA was isolated and analyzed for lipoprotein lipase (LPL), adipocyte P2 gene (aP2) or 18S rRNA expression by Northern blotting as described (Ref). Data from densitometric analysis of the Northern blot is shown in (D) as the average of duplicate samples, normalized to 18S rRNA.

[2] = test system: M2-10B4 marrow stromal cells; experiment: Matrix mineralization (45Ca incorporation assay, von Kossa staining) in M2-10B4 marrow stromal cells; conditions: pretreatment; cyclopamine 1-10 μM, DKK-1 1 μg/ml
Protocol: as §1, §2
^45Ca incorporation assay—Matrix mineralization in cell monolayers was quantified using the ^45Ca incorporation assay as previously described.
After 14 days, mineralization was identified by a von Kossa staining, which appears black. FIG. 3C is a depiction of von Kossa staining of M2 cells exposed to various conditions.
After 14 days, matrix mineralization in cultures was quantified using a ^45Ca incorporation assay.
(§3) Next, a combination of 22R and 20S oxysterols (RS, 2.5 μM each) were added in the presence or absence of SC as indicated. After 3 days, ALP activity was measured as described earlier. […] (B) M2 cells were treated as described in (A) and after 10 days matrix mineralization in cultures was quantified by a ^45Ca incorporation assay as described earlier. […] (C) M2 cells were pretreated with 20 μM SC for 4 hours, followed by the addition of RS in the presence or absence of SC as described above. After 8 days, total RNA was isolated and analyzed for osteocalcin (Osc) and […] expression by Northern blotting as previously described. Data from densitometric analysis of the Northern blot is shown in (D) as the average of duplicate samples, normalized to 18S rRNA. (E) M2 cells at confluence were pretreated for 2 hours with control vehicle (C), or PLA2 inhibitors ACA (25 μM) and AACOCF3 (AAC, 20 μM), in osteogenic medium. Next, a combination of 22R and 20S oxysterols (RS, 2.5 μM) was added in the presence or absence of the inhibitors as indicated. After 3 days, ALP activity was measured as previously described. […] (F) M2 cells were treated as described in (E). After 10 days, matrix mineralization in cultures was quantified using a ^45Ca incorporation assay as previously described. Results from a representative of three experiments are shown, reported as the mean of quadruplicate determinations ±SD, normalized to protein concentration (p<0.01 for RS vs. RS+ACA and RS+AAC).
(A) M2 cells at confluence were pretreated for four hours with RPMI containing 1% FBS, followed by treatment with control vehicle or 5 μM 20S oxysterol for 1, 4, or 8 hours. Next total cell extracts were prepared and analyzed for levels of native or phosphorylated ERK (pERK) using specific antibodies as previously described. Data from a representative of four experiments are shown, each treatment shown in duplicate samples. (B) M2 cells at confluence were pretreated for 2 hours with control vehicle (C) or 20 μM PD98059 (PD) in osteogenic medium as previously described. Next, a combination of 22R and 20S oxysterols (RS, 5 μM each) were added to appropriate wells as indicated. After 10 days of incubation, matrix mineralization was quantified by the ^45Ca incorporation assay as previously described. […] (C) M2 cells at confluence were pretreated for 2 hours with 20 µM PD98059 (PD) in RPMI containing 5% FBS. Next, the cells were treated with control vehicle (C), 10 μM troglitazone (Tro), or 10 μM of 20S or 22S oxysterols, alone or in combination as indicated. After 10 days, adipocytes were visualized by oil Red O staining and quantified by light microscopy as previously described. […]

Runx2 = Runx2 DNA binding and protein expression in M2-10B4 cells; conditions: pretreatment; cyclopamine 1-10 μM; DKK-1 1 μg/ml (Runx2 protein expression only)
Protocol: Method: Marrow stromal cells (M2-10B4 (M2)) were treated with doses of 5-15 μM 20S-hydroxycholestrol.
Method: Marrow stromal cells (M2-10B4 (M2)) were treated with doses of 5-15 μM20S-hydroxycholestrol. Groups of cells were pre-treated with 22S or 22R.
Method: Marrow stromal cells (M2-10B4 (M2)) were pretreated with Wnt signaling inhibitor, DKK-1 (1 μg/ml), then treated with 20S-hydroxycholestrol and 22(8)-hydroxycholesterol.

osteocalcin mRNA = experiment: Northern blotting for osteocalcin mRNA in M2-10B4 cells; conditions: for levels of osteocalcin mRNA relative to the control: 5 μM, eight days, M2-10B4
Protocol: RNA isolation and Northern blot analysis—Following treatment of cells under appropriate experimental conditions, total RNA was isolated using the RNA isolation kit from Stratagene (La Jolla, Calif., U.S.A.). Total RNA ([…]) was run on a 1% agarose/formaldehyde gel and transferred to Duralon-UV membranes (Strategene, CA, U.S.A.) and cross-linked with UV light. The membranes were hybridized overnight at 60 degree C. with ^32P-labeled mouse osteocalcin cDNA probe, mouse lipoprotein lipase (LPL), mouse adipocyte protein 2 (aP^2) PCR-generated probes, human 28S or 18S rRNA probes obtained from Geneka Biotechnology (Montreal, Quebec, Canada) and Maxim Biotech (San Francisco, Calif., U.S.A.), respectively. The PCR products were generated using primer sets synthesized by Invitrogen (Carlsbad, Calif., U.S.A.) with the following specifications: mouse aP2 gene (accession no. M13261); sense (75-95) 5′-[…]-3′, antisense (362-383) 5′-[…]-3′, generating a PCR product of 309 base pairs. Mouse LPL (accession no. XM—134193); sense (1038-1058) 5′-[…]-3′, antisense (1816-1836) 5′-[…]-3′, generating a PCR product of 799 base pairs. The PCR products were gel-purified and sequenced by the UCLA sequencing core, showing the highest similarity to their respective GenBank entries. Following hybridization, the blots were washed twice at room temperature with 2×SSC+0.1% SDS, and then twice at 60 degree C. with 0.5×SSC+0.1% SDS, and exposed to X-ray film. The extent of gene induction was determined by densitometry.
After 4 and 8 days, total RNA from duplicate samples was isolated and analyzed for osteocalcin (Osc) and 28S rRNA expression by Northern blotting as described. FIG. 3E is a radiogram of Northern blotting for osteocalcin mRNA in M2 cells exposed to a control or combination of oxysterols for 4 or 8 days. FIG. 3F is a bar graph depicting the relative demsometric units of osteocalcin mRNA in M2 cells exposed to a control or combination of oxysterols for 4 -or 8 days. Data from densitometric analysis of the Northern blot is shown in (F) as the average of duplicate samples, normalized to 28S rRNA.
as §3
ALP activity was measured after 2 days, as described. […] (B) M2 cells were treated as described in (A). After 10 days, matrix mineralization in cultures was quantified using a ^45Ca incorporation assay as described. […] (C) M2 cells were treated under similar conditions as those described above. […]

marrow stromal cells = experiment: Osteogenic differentiation of marrow stromal cells (marker not specified: ALP activity, osteocalcin mRNA, mineral formation)
Protocol: The purpose of the study was to identify other osteogenic and anti-adipogenic oxysterols based on the chemical structure of previously identified oxysterols. The ability of such candidate oxysterol molecules to induce the formation of osteoblastic cells in cultures of marrow stromal cells (which are progenitors of osteoblastic cells that make bone) were tested. In order to assess osteogenic differentiation of cells, one or more markers of osteogenic differentiation were measured in untreated cells and cells treated with the test oxysterols. These markers included: alkaline phosphatase activity, osteocalcin mRNA expression and mineral formation in cultures of marrow stromal cells. Activation of either one or more than one marker by a single or combination oxysterols is indicative of their osteogenic property.

## CC(C)CCC[C@@H](C)[C@H]1CC[C@H]2[C@@H]3C(=O)C=C4C[C@@H](O)CC[C@]4(C)[C@H]3CC[C@]12C [7-ketocholesterol, reference compound]
[1]; 10 μM oxysterol, 3 days, osteogenic medium
  induction of alkaline phosphatase activity: did not induce
M2 cells
  effect on troglitazone-induced adipogenesis: unable to inhibit adipogenesis

## CC1=C2C[C@H]3[C@@H](CC=C4C[C@@H](O)CC[C@@]43C)[C@@H]2CC[C@]12O[C@@H]1C[C@H](C)CN[C@H]1[C@H]2C [cyclopamine, reference compound]
[2]
  effect on SS-induced mineralization: inhibited
Runx2
  effect on SS-induced Runx2 DNA binding and protein expression: inhibited
Osteocalcin mRNA; pretreatment, cyclopamine 1-10 μM, DKK-1 1 μg/ml
  effect on SS-induced osteocalcin mRNA expression: inhibited

## C[C@H](CC[C@@H]1OC1(C)C)[C@H]1CC[C@H]2[C@@H]3CC=C4C[C@@H](O)CC[C@]4(C)[C@H]3CC[C@]12C [24S,25-epoxycholesterol]
Marrow stromal cells
  osteogenic property, alone or in combination with originally described oxysterols: osteoinductive
[1]
  Enzyme Activity (units/mg total cellular protein) ± SD, alkaline phosphatase: 1,588 ± 19^ units/mg total cellular protein
Osteocalcin mRNA
  levels of osteocalcin mRNA relative to the control: increased

## CC(C)[C@@H](O)CC[C@@H](C)[C@H]1CC[C@H]2[C@@H]3CC=C4C[C@@H](O)CC[C@]4(C)[C@H]3CC[C@]12C [24-hydroxycholesterol, 24(S)-hydroxycholesterol]
Marrow stromal cells
  osteogenic property, alone or in combination with originally described oxysterols: osteoinductive
[1]
  Enzyme Activity (units/mg total cellular protein) ± SD, alkaline phosphatase: 250 ± 20 units/mg total cellular protein

## CC(C)CCC[C@@H](C)[C@H]1CC[C@H]2[C@@H]3CC=C4[C@@H](O)[C@@H](O)CC[C@]4(C)[C@H]3CC[C@]12C [4beta-hydroxycholesterol]
Marrow stromal cells
  osteogenic property, alone or in combination with originally described oxysterols: osteoinductive
Osteocalcin mRNA
  levels of osteocalcin mRNA relative to the control: moderate increase
